Assay results published in patent publication EP0929311B1, “INHIBITION OF APOPTOSIS USING INTERLEUKIN-1 beta-CONVERTING ENZYME (ICE)/CED-3 FAMILY INHIBITORS” (Idun Pharmaceuticals, Inc., priority 1996, dated 1998).
Residues, ends and D or L forms follow the SMILES beside them. *: point of attachment. Cbz = O=C(OCc1ccccc1)*; CH2F = FC*

System: granulocytes
Experiment: Granulocyte/neutrophil survival in culture, hypodiploid nuclei by propidium iodide flow cytometry
Type: cell-based
Details: at 48 hours; granulocytes cultured at 37°C, hypodiploid DNA
Protocol: Whole blood anticoagulated with Acid Citrate Dextrose (ACD) with a ratio of 1:5 ACD to blood was collected (~100 ml).
Using polypropylene plastic ware, neutrophils are isolated as follows: • 30 ml of the whole blood is added to 50 ml polypropylene centrifuge tubes containing 15 ml of 6% Dextran (in Saline). The blood is allowed to sediment for approximately 1 hour at room temperature.
The turbid straw colored layer harvested from the top of the cylinders into 50 ml conical polypropylene tubes. The blood cells were pelleted by centrifugation at 240 xg (Sorvall centrifuge at 1200 rpm) for 12 min. at 4°C with the brake on low. […]
The supernatant was aspirated and the neutrophil pellet resuspended in 4.0 ml cold PBS (w/o Ca, Mg) on ice. 10 µl of the neutrophil cell suspension was diluted with 990 µl of Trypan blue (1:100) and cells counted using a hemacytometer. The cell number and viability were determined. […]
Neutrophils were resuspended in hypotonic fluorochrome solution at a density of 5×10^6 cells/ml. Propidium iodide fluorescence of individual nuclei was evaluated in FL2 and measured on a logarithmic scale while gating on physical parameters in forward and side scatter to exlude cell debris.
At least 10,000 events per sample were collected and the results were evaluated relative to a non-apoptotic neutrophil population. […]

COC(=O)C[C@H](NC(=O)[C@H](C)NC(=O)[C@@H](NC(=O)OCc1ccccc1)C(C)C)C(=O)CF [zVADfmk] (Cbz-Val-Ala-Asp(OMe)-CH2F)
effect on improving granulocyte survival: weak effect
